Data on one molecule can be found in US9259420B2, “Tetrandrine pharmaceutical formulations” (CBA Pharma, Inc., priority 2012, dated 2016).

Data set [1] is described as follows: bioequivalence study in rats: d-tetrandrine plasma concentration after oral gavage of free base versus hydrochloride salt (HPLC). It counts as in vivo, Sprague-Dawley rats. The procedure: A bioequivalence study in rats was conducted to compare the rate and extent to which the active drug ingredient (d-tetrandrine) is absorbed from a free base versus a hydrochloride salt. The drug ingredients were formulated in capsules by the University of Kentucky Center for Pharmaceutical Sciences and Technology (CPST) to administer equivalent amounts of d-tetrandrine to rats via oral gavage. Dosing syringes, capsule filling apparatus and mini capsules (size 9) appropriate for dosing rats were obtained from Torpac (Fairfield, N.J.).
A single rat per time point (destructive sampling) was used to obtain as much blood volume as possible for the HPLC analysis. This was necessary to accommodate analysis with the current UV based HPLC assay that had extensively been used at CBA Pharma. The JPLC analyses were performed at the CBA Pharma facilities, by a scientist with extensive experience in plasma based assay. Results were provided to a second scientist for evaluation and modeling.
Given the limited information on rat d-tetrandrine pharmacokinetics (PK), the studies were conducted in stages. A preliminary study (pilot) to identify the dose required for adequate assay sensitivity was first conducted using approximately 25 mg/kg and approximately 120 mg/kg doses administered in capsules. Four animals per dose level per formulation (acid or base) were administered drug. Sprague-Dawley rats were used for these studies and were obtained from Harlan Laboratories at least one weak prior to the experiments to allow animals to recover from shipping stress and to acclimate. Animals weighed 200-250 g at the time of the experiments. Animals were euthanized one hour after drug administration and blood was collected in EDTA containing tubes via cardiac puncture and rapidly centrifuged to separate the plasma. Typically, enough plasma was obtained to afford duplicate sample analysis. The plasma was stored at −80° C. until it was transported to CBA Pharma facilities in Styrofoam containers containing dry ice.
However, multiple capsules required for dosing higher doses were contributing to the pharmacokinetic variability observed in initial pilot studies. Thus in subsequent studies, younger and smaller animals were administered doses of approximately 150 mg/kg, and blood samples were obtained two hours after drug administration. These smaller animals were more difficult to dose because the size of the tablet. Three animals from the “acid” group and two animals from the “base” group were excluded based on the technician's judgment that some tissue damage had been done to the animals during the gavage dosing. […]
In some cases the plasma concentrations could not be determined due to extremely high interfering peaks. […]

Data set [2] can be described thus: dissolution in water when preparing the liquid dosing formulation. It counts as physicochemical. Conditions: for 200 mg/kg dosing preparation. Here is the method:
Thus three animals were administered 200 mg/kg of each the acid and base formulations in liquid or suspension, respectively, to determine if the dosing and/or variability would improve. […] The solution, and suspension were prepared in water with 0.25% carboxymethylcellulose to facilitate fluidity during dosing. Samples were collected at 30 minutes, 1, 2, 5 and 24 hours after administration of […].

`COc1ccc2cc1Oc1ccc(cc1)C[C@H]1c3cc(c(OC)cc3CCN1C)Oc1c(OC)c(OC)cc3c1[C@H](C2)N(C)CC3` [d-tetrandrine]: the “rate of absorption into the bloodstream, free base versus di-acid salt” value in data set [1] (free base formulations compared with di-acid salt formulations) is reported as “substantially as rapidly as formulations of the di-acid salt”. The “d-tetrandrine plasma concentrations relative to the limit of the HPLC assay” value in data set [1] (rats, 100 mg/kg, liquid/suspension, oral gavage, sampled up to 48 hours, FIG. 4) is listed as “well above the qualification limit of the HPLC assay for 48 hours”. In addition, the “AUC estimates (Bailer method), acid versus base formulation” value in data set [1] (rats, 100 mg/kg, oral gavage, p>0.05, FIG. 6) was “no statistical or otherwise significant difference”. In data set [1] (rats, higher dose (approximately 230 mg/kg capsules, 200 mg/kg liquid/suspension), oral gavage, Student t-test, two-tailed, p>0.05, FIG. 2), the “plasma concentrations and dose normalized plasma concentrations, comparison of d-tetrandrine and d-tetrandrine-2HCl formulations” value was “no statistical difference”. Besides, in data set [2], the solubility in water result is “did not dissolve in water”.
